According to ChEMBL document CHEMBL1201862, “PubChem BioAssay data set” (2004):
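In this assay, cells in 96-well plates receive the compound at five concentrations for 48 hours. Endpoints are linearly interpolated between the surrounding concentrations. GI50: concentration for 50% inhibition of growth.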 Active and inactive are the calls of the source. Cut-off read from the data, not from the text of the source: active = GI50 up to about 1.1 µM and inactive = higher.

Key:
Assay in all cases: growth of human tumour cells (NCI), 48 h
[1] = test system: SF-539
[2] = test system: LXFL 529
[3] = test system: HOP-18
[4] = test system: OVCAR-4
[5] = test system: RXF 631
[6] = test system: HCT-15
[7] = test system: HCT-116
[8] = test system: SF-295
[9] = test system: 786-0
[10] = test system: KM-20L2
[11] = test system: UO-31
[12] = test system: UACC-257
[13] = test system: A549
[14] = test system: SNB-19
[15] = test system: Malme-3M
[16] = test system: M14
[17] = test system: U-251
[18] = test system: EKVX
[19] = test system: OVCAR-5
[20] = test system: M19-MEL
[21] = test system: SK-MEL-28
[22] = test system: OVCAR-8
[23] = test system: DMS-114
[24] = test system: DMS-273
[25] = test system: UACC-62
[26] = test system: NCI-H460
[27] = test system: LOX IMVI
[28] = test system: RPMI-8226
[29] = test system: HOP-92
[30] = test system: TK-10
[31] = test system: XF498
[32] = test system: RXF 393
[33] = test system: OVCAR-3
[34] = test system: HOP-62
[35] = test system: ACHN
[36] = test system: SNB-78
[37] = test system: NCI-H23
[38] = test system: SN12C
[39] = test system: SW-620
[40] = test system: SNB-75
[41] = test system: HT-29
[42] = test system: SK-OV-3
[43] = test system: NCI-H226
[44] = test system: SF-268
[45] = test system: IGROV-1
[46] = test system: KM12
[47] = test system: COLO 205
[48] = test system: HCC 2998
[49] = test system: DLD-1
[50] = test system: CAKI-1
[51] = test system: SK-MEL-2
[52] = test system: MOLT-4
[53] = test system: NCI-H522
[54] = test system: SK-MEL-5
[55] = test system: CCRF-CEM
[56] = test system: HL-60
[57] = test system: K562
[58] = test system: A498

With `NNC(=O)N/N=C1\C(=O)N(c2nccs2)C(=O)C(=O)C1c1nc2ccccc2s1` (centres undefined) the GI50 [1] was > 100 µM (inactive), the GI50 [2] was > 100 µM (inactive) and the GI50 [3] was 7.19 µM (inactive). For the same compound, the GI50 [4] was > 100 µM (inactive), the GI50 [5] was > 100 µM (inactive) and the GI50 [6] was > 100 µM. The GI50 [7] was > 100 µM (inactive), the GI50 [8] was > 100 µM (inactive) and the GI50 [9] was > 100 µM (inactive). For the same compound, the GI50 [10] was > 100 µM (inactive), the GI50 [11] was > 100 µM (inactive) and the GI50 [12] was > 100 µM (inactive). For the same compound, the GI50 [13] was > 100 µM (inactive), the GI50 [14] was > 100 µM (inactive) and the GI50 [15] was > 100 µM (inactive). The GI50 [16] was > 100 µM (inactive), the GI50 [17] was > 100 µM (inactive) and the GI50 [18] was > 100 µM (inactive). For the same compound, the GI50 [19] was > 100 µM (inactive), the GI50 [20] was > 100 µM (inactive) and the GI50 [21] was > 100 µM (inactive). The GI50 [22] was > 100 µM (inactive), the GI50 [23] was > 100 µM (inactive) and the GI50 [24] was > 100 µM (inactive). The GI50 [25] was > 100 µM (inactive), the GI50 [26] was > 100 µM (inactive) and the GI50 [27] was > 100 µM (inactive). For the same compound, the GI50 [28] was > 100 µM (inactive), the GI50 [29] was > 100 µM (inactive) and the GI50 [30] was > 100 µM (inactive). The GI50 [31] was > 100 µM (inactive), the GI50 [32] was > 100 µM (inactive) and the GI50 [33] was > 100 µM (inactive). For the same compound, the GI50 [34] was > 100 µM (inactive), the GI50 [35] was > 100 µM (inactive) and the GI50 [36] was > 100 µM (inactive). The GI50 [37] was > 100 µM (inactive), the GI50 [38] was > 100 µM (inactive) and the GI50 [39] was > 100 µM (inactive). For the same compound, the GI50 [40] was > 100 µM (inactive), the GI50 [41] was > 100 µM (inactive) and the GI50 [42] was > 100 µM (inactive). The GI50 [43] was > 100 µM (inactive), the GI50 [44] was > 100 µM (inactive) and the GI50 [45] was > 100 µM (inactive). The GI50 [46] was > 100 µM (inactive), the GI50 [47] was > 100 µM (inactive) and the GI50 [48] was > 100 µM (inactive). For the same compound, the GI50 [49] was > 100 µM (inactive), the GI50 [50] was > 100 µM (inactive) and the GI50 [51] was > 100 µM (inactive).

In the case of `S=P1(Oc2ccccc2)NNP2(=NP(N3CC3)(N3CC3)=NP(N3CC3)(N3CC3)=N2)NN1` (centres undefined), the GI50 [1] is reported as > 100 µM (inactive), the GI50 [2] is reported as > 100 µM (inactive) and the GI50 [3] is reported as > 100 µM (inactive). For the same compound, the GI50 [4] was > 100 µM (inactive), the GI50 [5] was > 100 µM (inactive) and the GI50 [52] was 19.6 µM (inactive). For the same compound, the GI50 [6] was > 100 µM, the GI50 [7] was > 100 µM (inactive) and the GI50 [8] was > 10 µM (inactive). The GI50 [9] was > 100 µM (inactive), the GI50 [11] was > 100 µM (inactive) and the GI50 [12] was > 100 µM (inactive). The GI50 [13] was > 100 µM (inactive), the GI50 [14] was > 100 µM (inactive) and the GI50 [53] was > 100 µM (inactive). For the same compound, the GI50 [15] was > 100 µM (inactive), the GI50 [17] was > 100 µM (inactive) and the GI50 [18] was > 100 µM (inactive). For the same compound, the GI50 [54] was > 100 µM (inactive), the GI50 [55] was 38.9 µM (inactive) and the GI50 [19] was > 100 µM (inactive). For the same compound, the GI50 [20] was > 100 µM (inactive), the GI50 [21] was > 100 µM (inactive) and the GI50 [22] was > 100 µM (inactive). For the same compound, the GI50 [23] was > 100 µM (inactive), the GI50 [56] was 30.4 µM (inactive) and the GI50 [24] was 76.4 µM (inactive). The GI50 [25] was 98.4 µM (inactive), the GI50 [26] was 37.6 µM (inactive) and the GI50 [27] was > 100 µM (inactive). For the same compound, the GI50 [28] was > 100 µM (inactive), the GI50 [30] was > 100 µM (inactive) and the GI50 [31] was > 100 µM (inactive). The GI50 [33] was > 100 µM (inactive), the GI50 [34] was 49.4 µM (inactive) and the GI50 [35] was > 100 µM (inactive). For the same compound, the GI50 [37] was 41.9 µM (inactive), the GI50 [38] was 84.1 µM (inactive) and the GI50 [39] was > 100 µM (inactive). The GI50 [40] was 64.4 µM (inactive), the GI50 [41] was > 100 µM (inactive) and the GI50 [57] was > 100 µM (inactive). The GI50 [42] was > 100 µM (inactive), the GI50 [43] was > 100 µM (inactive) and the GI50 [44] was 78.3 µM (inactive). For the same compound, the GI50 [45] was > 100 µM (inactive), the GI50 [46] was > 100 µM (inactive) and the GI50 [47] was > 100 µM (inactive). The GI50 [48] was > 100 µM (inactive), the GI50 [58] was > 100 µM (inactive) and the GI50 [49] was > 100 µM (inactive). For the same compound, the GI50 [50] was > 100 µM (inactive) and the GI50 [51] was > 100 µM (inactive).
